Key:
[1] = tested on: primary cardiomyocytes; experiment: Measurement of cell inhibition rate (MTT) on normal primary cardiomyocytes; assay type: cell-based, neonatal Wistar rats
Protocol: The isolation and culture of cardiomyocytes were performed by referring to the differential adhesion method (Kreider, A. Messing, H. Doan, S. U. Kim, R. P. Lisak and D. E. Pleasure, Enrichment of Schwann cell cultures from neonatal rat sciatic nerve by differential adhesion, Brain Res 2 (1981), pp. 433-444). […]
(§1) The isolated primary culture of cardiomyocytes was inoculated in an amount of 10^4 cells per well to a 96-well plate, and the volume of each well was 100 ul (marginal wells were filled with sterile PBS). […] The optical density (OD) value of each well was measured at wavelength of 550 nm by enzyme-linked immunoassay instrument, and each well was repeatedly measured for 5 times and the results were recorded.

[2] = tested on: TG-induced cardiomyocytes apoptosis; experiment: Protection against TG-induced cardiomyocyte apoptosis (MTT); assay type: cell-based, Wistar sucking mice
Protocol: The isolation and culture of cardiomyocytes were performed by referring to the differential adhesion method (Kreider, A. Messing, H. Doan, S. U. Kim, R. P. Lisak and D. E. Pleasure, Enrichment of Schwann cell cultures from neonatal rat sciatic nerve by differential adhesion, Brain Res 2 (1981), pp. 433-444). Wistar sucking mice newborn within 24 h were used, sterilized at skin of ventrum with iodine tincture and ethanol, subjected to thoracotomy using scissors at subxiphoid median line with a deviation to left, heart was taken out after slant thoracotomy and placed in PBS precooled with ice; the heart was softly blown and beaten with 0.01M PBS to remove blood cells and other tissues, then cut into pieces with 0.5 mm^3 size, washed with 0.01 M PBS repeatedly for 2-3 times; the pieces were placed in conical flask, added with 4 ml of 0.125% pancretin, 1 ml of 0.1% collagenase II (final concentrations separately being 0.1% and 0.02%), shaken in 37° C. water bath for 10 min, the supernatant was discarded; then 4 ml of 0.125% pancretin and 1 ml of 0.1% collagenase II again, shaken in 37° C. water bath for digestion for 10 min, the supernatant was sucked and transferred to a centrifuge tube, and the supernatant was added with DMEM containing 10% FBS to terminate digestion; the step of shaking and digestion in water bath was repeated for 3-4 times, until the tissue pieces were completely digested; the collected cell suspension was centrifuged under 1000 rpm for 10 min, the supernatant was removed, then a culture medium was added for resuspension; the resuspended cells were inoculated in a cell culture flask, placed in CO2 incubator at 37° C. for incubation for 1.5 h, then the culture medium was sucked out, countered under microscope, then DMEM culture medium containing 10% FBS was used to adjust cell density, inoculated in an amount of 1×10^4 to a 96-well plate, placed in 5% CO2 incubator at 37° C. for 24 h, then half medium was replaced, a culture medium containing 0.1% Brdu was supplementally added; then the medium was replaced once per 48 h, and primary cardiomyocytes were obtained after 4 days of cultivation.
as §1, with “recorded. […]” for “recorded.”

Question: Which inhibition at 30 µM ([1]; Cardiomyocyte, 30 μM compound, 48 h, MTT, cell survival rate = 1 − cell inhibition rate) does the source give for `O=C(/C=C/c1ccccc1)NC(NC(=O)Nc1cccc2cccnc12)C(Cl)(Cl)Cl` (stereo not shown) [Example 1, (2E)-3-phenyl-N-[1-(8-quinolylamino)formylamino-2,2,2-trichloroethyl]-2-acrylamide] here?
Answer: 9.57 ± 1.62%

Question: What about the inhibition at 300 µM ([1]; Cardiomyocyte, 300 μM compound, 48 h, MTT, cell survival rate = 1 − cell inhibition rate) of the same molecule?
Answer: 7.78 ± 3.42%

Question: What about the “effect on survival rate of normal cardiomyocytes” value ([1]; concentration within 300 μM) of the same molecule?
Answer: no effect

Question: Which “Cardiomyocyte survival rate (%)” value ([2]; TG 0.4 uM + compound 0.3 μM, pretreatment 30 min before TG) does the source give for `O=C(/C=C/c1ccccc1)NC(NC(=O)Nc1cccc2cccnc12)C(Cl)(Cl)Cl` (stereo not shown) [Example 5, (2E)-3-phenyl-N-[1-(8-quinolylamino)formylamino-2,2,2-trichloroethyl]-2-acrylamide] here?
Answer: 79.3 ± 4.6%

Question: And the “Cardiomyocyte survival rate (%)” value ([2]; TG 0.4 uM + compound 1 μM, pretreatment 30 min before TG)?
Answer: 83.8 ± 8.3%

Question: And the “Cardiomyocyte survival rate (%)” value ([2]; TG 0.4 uM + compound 3 μM, pretreatment 30 min before TG)?
Answer: 84.2 ± 1.1%

Question: `C/C=C(/C)C(=O)O[C@H]1C(C)=C2[C@H]([C@@H]1OC(=O)CCCCCCC)[C@@](C)(OC(C)=O)C[C@H](OC(=O)CCC)[C@@]1(O)[C@H]2OC(=O)[C@@]1(C)O` [TG, thapsigargin, reference compound] was tested. Which “Cardiomyocyte survival rate (%)” value ([2]; TG alone 0.4 uM (apoptosis inducer)) did it give?
Answer: 59 ± 1.1%

Reference: patent publication US9260384B2, “Urea compounds and use thereof for inhibiting apoptosis” (Chinese PLA General Hospital, priority 2010, dated 2016)
